Test results from article PMC6112376, “Comprehensive Analyses and Prioritization of Tox21 10K Chemicals Affecting Mitochondrial Function by in-Depth Mechanistic Studies” (Environmental Health Perspectives, 2018).
Like-named read-outs stand apart in the source and are kept apart here.

How the values were obtained:
rat primary hepatocytes [1] = assay: MMP assay in rat primary hepatocytes; conditions: for IC50: read-out: MMP assays IC50 (µM) Rat Hepatocytes
rat primary hepatocytes [2] = system: rat primary hepatocytes
HepG2 cells [3] = assay: cells; conditions: Homo sapiens; for IC50: HepG2, read-out: MMP assays IC50 (µM) HepG2; for Emax: HepG2, read-out: MMP assays efficacy (%) HepG2
HepG2 cells [4] = conditions: cited from earlier work
HepG2 cells [5] = conditions: for IC50: read-out: MMP assays IC50 (µM) HepG2
[6] = read-out: MMP assays IC50 (µM) qHTS-HepG2
[7] = read-out: MMP assays IC50 (µM), qHTS-HepG2
[8] = rat hepatocytes, mean ± SD of three experiments
[9] = HepG2 cells, single number from one experiment

Row | Compound | MMP assays efficacy (%) Rat Hepatocytes (rat primary hepatocytes [2]) | MMP assays efficacy (%) qHTS-HepG2 (HepG2 cells [4]) | IC50 (HepG2 cells [4]; [6]) [µM] | MMP assays efficacy (%) Rat Hepatocytes (rat primary hepatocytes [1]; [8]) | MMP assays efficacy (%) HepG2 (HepG2 cells [5]; [9]) | IC50 (HepG2 cells [5]; [9]) [µM] | IC50 (rat primary hepatocytes [1]; [8]) [µM] | also measured
1 | C#C[C@]1(OC(C)=O)CC[C@H]2[C@@H]3CCC4=C[C@@H](OC(C)=O)CC[C@@H]4[C@H]3CC[C@@]21C [Ethynodiol diacetate] | inactive | -62±16% | 15.4 ± 0.84 |  |  |  |  | MMP assays IC50 (µM) Rat Hepatocytes (rat primary hepatocytes [1]): inactive; IC50 (HepG2 cells [3]): 21.8 µM; Emax (HepG2 cells [3]): 98%
2 | COP(=S)(OC)Oc1cc(Cl)c(Br)cc1Cl [Bromofos] | -111±7% | -105±8% | 7.7 ± 1.63 |  |  |  |  | IC50 (rat primary hepatocytes [1]; Rattus norvegicus, Hepatocyte): 22.7 ± 10.4 µM; IC50 (HepG2 cells [3]): 8.91 µM; Emax (HepG2 cells [3]): 95%
3 | OC(c1ccc(Cl)cc1)(c1ccc(Cl)cc1)C(Cl)(Cl)Cl [Dicofol] | -122±51% | -98±4% | 9.69 ± 3.51 |  |  |  |  | IC50 (rat primary hepatocytes [1]; Rattus norvegicus, Hepatocyte): 24.6 ± 9.27 µM; IC50 (HepG2 cells [3]): 8.91 µM; Emax (HepG2 cells [3]): 101%
4 | Oc1ccc(Oc2ccccc2)cc1 [Compound 4-Phenoxyphenol] | inactive | -106±22% | 28 ± 10.6 |  |  |  |  | MMP assays IC50 (µM) Rat Hepatocytes (rat primary hepatocytes [1]): inactive; IC50 (HepG2 cells [3]): 47.6 µM; Emax (HepG2 cells [3]): 104%
5 | O=C1OC(c2ccc(O)cc2)(c2ccc(O)cc2)c2ccccc21 [Phenolphthalein] | -98±24% | -103±24% |  |  |  |  |  | IC50 (rat primary hepatocytes [1]; Rattus norvegicus, Hepatocyte): 39.5 ± 16.9 µM; IC50 (HepG2 cells [3]): 25.1 µM; Emax (HepG2 cells [3]): 132%; IC50 (HepG2 cells [4]; [7]): 42.8 ± 2.74 µM
6 | COC(=O)Nc1nc2ccc(C(=O)c3ccccc3)cc2[nH]1 [Mebendazole] | inactive | -70±10% |  |  |  |  |  | IC50 (HepG2 cells [3]): 2.34 µM; Emax (HepG2 cells [3]): 89%; IC50 (HepG2 cells [4]; [7]): 2.45 ± 0.34 µM
7 | O=C(CCCN1CCC2(CC1)C(=O)NCN2c1ccccc1)c1ccc(F)cc1 [Spiperone] | -74±48% | -65±12% |  |  |  |  |  | Emax (HepG2 cells [3]): 54%
8 | TYROTHRICIN | -89±25% |  |  |  |  |  |  | 
9 | O.O.O.O.[Na+].[O-]c1ccccc1-c1ccccc1 [Sodium 2-phenylphenate tetrahydrate] |  | -98±8% |  | inactive | -77% | 31.6 |  | MMP assays IC50 (µM) Rat Hepatocytes (rat primary hepatocytes [1]; [8]): inactive; IC50 (HepG2 cells [4]; [7]): 18.5 µM
10 | CCC(=O)O[C@]1(C(=O)SCF)[C@H](C)C[C@H]2[C@@H]3C[C@H](F)C4=CC(=O)C=C[C@]4(C)[C@@]3(F)[C@@H](O)C[C@@]21C [Fluticasone propionate] |  | -58±17% |  | inactive | inactive |  |  | MMP assays IC50 (µM) Rat Hepatocytes (rat primary hepatocytes [1]; [8]): inactive; MMP assays IC50 (µM) HepG2 (HepG2 cells [5]; [9]): inactive; IC50 (HepG2 cells [4]; [7]): 9.02 ± 1.71 µM
11 | CCN=C1C=CC(=C(c2ccc(N(CC)CC)cc2)c2ccc(N(CC)CC)cc2)c2ccccc21.Cl [Basic blue 7] |  | -87±17% | 0.02 ± 0.03 | -79±39% | -78% | 0.05 | 1.53 ± 1.42 | 
12 | Cc1cc2c(cc1C(F)(F)F)N(C(=O)Nc1ccc(Oc3cccnc3C)nc1)CC2.Cl |  | -159±11% | 14.4 ± 5.99 | -98±10% | -104% | 2 | 6.15 ± 3.62 | 
13 | CCOC(=O)c1ccccc1C(=C1C=C(Br)C(=O)C(Br)=C1)c1cc(Br)c(O)c(Br)c1 [Tetrabromophenolphthalein ethyl ester] |  | -105±26% |  | -101±25% | -129% | 26.6 | 13.8 ± 0.94 | IC50 (HepG2 cells [4]; [7]): 23.8 ± 6.89 µM
14 | CCn1c2ccccc2c2cc(N)ccc21.Cl [3-Amino-9-ethylcarbazole hydrochloride] |  | -93±11% | 35.4 ± 24.5 | -53±23% | -38% | 14.1 | 56.2 | 
15 | CC(=O)OCCN(CCOC(C)=O)c1ccc(N=Nc2ccc([N+](=O)[O-])cc2C#N)cc1 [Disperse Red 82] |  | -87±5% | 8 ± 1.45 | -59±9% | -71% | 6.31 | 11.7 ± 8.76 | 
16 | N=C1NC(=N)c2cc3ccccc3cc21 [1,3-Diiminobenz(f)isoindoline] |  | -82±11% | 11.1 ± 7.81 | -68±18% | -95% | 35.5 | 26.7 ± 23.6 | 
17 | C(=Cc1ccncc1)c1ccccc1 [Compound 4-Styrylpyridine] |  | -65±10% | 11.2 ± 5.54 | inactive | inactive |  |  | MMP assays IC50 (µM) Rat Hepatocytes (rat primary hepatocytes [1]; [8]): inactive; MMP assays IC50 (µM) HepG2 (HepG2 cells [5]; [9]): inactive
18 | CCc1ccc(O)cc1 [Compound 4-Ethylphenol] |  | inactive |  | inactive | inactive |  |  | MMP assays IC50 (µM) Rat Hepatocytes (rat primary hepatocytes [1]; [8]): inactive; MMP assays IC50 (µM) HepG2 (HepG2 cells [5]; [9]): inactive; MMP assays IC50 (µM) qHTS-HepG2 (HepG2 cells [4]): inactive
19 | Nc1nc(-c2ccc([N+](=O)[O-])cc2)cs1 [2-Amino-4-(p-nitrophenyl)thiazole] |  | -59±9% | 3.9 ± 1.78 | -53±16% | -54% | 8.91 | 20.6 ± 21.1 | 
20 | Cl.Nc1ccc2cc3ccc(N)cc3nc2c1 [Proflavin hydrochloride] |  | -115±14% |  | -79±34% | -97% | 3.55 | 15.9 ± 5.23 | IC50 (HepG2 cells [4]; [7]): 1.66 ± 0.63 µM
21 | Nc1ccc(NC(=O)c2ccc(N)cc2)cc1 [4,4'-Diaminobenzanilide] |  | -100±8% | 3.72 ± 2.85 | -86±15% | -93% | 7.08 | 33.5 ± 2.73 | 
22 | Cc1cc(C(C)(C)C)c(O)c(C)c1Cn1c(=O)n(Cc2c(C)cc(C(C)(C)C)c(O)c2C)c(=O)n(Cc2c(C)cc(C(C)(C)C)c(O)c2C)c1=O |  | -98±4% | 12.2 ± 2.84 | -40±24% | -82% | 44.7 | 26.8 ± 25.3 | 
23 | CCCCCCCCCCCCCC[N+](C)(C)Cc1ccccc1.O.O.[Cl-] |  | -76±17% | 16.4 ± 4.28 | inactive | -114% | 13.8 |  | MMP assays IC50 (µM) Rat Hepatocytes (rat primary hepatocytes [1]; [8]): inactive
24 | O=C1c2ccccc2C(=O)C1c1ccc2ccccc2n1 [D&C Yellow 11] |  | -76±6% | 0.38 ± 0.13 | inactive | -75% | 0.44 |  | MMP assays IC50 (µM) Rat Hepatocytes (rat primary hepatocytes [1]; [8]): inactive
25 | Acriflavine hydrochloride |  | -131±19% | 0.94 ± 0.44 |  |  |  |  | IC50 (rat primary hepatocytes [1]): 3.55 ± 1.14 µM; MMP assays efficacy (%) HepG2 (HepG2 cells [5]): -107%; IC50 (HepG2 cells [5]): 0.44 µM
26 | Oc1ccc(Cl)cc1C1CCCC1 [Compound 4-Chloro-2-cyclopentylphenol] |  | -99±4% | 5.66 ± 1.93 | -85±8% | -99% | 6.31 | 33.6 ± 29.7 | 
